Assay results reported in article PMC11915032, “Development of a Novel ^18F-Labeled Radioligand for Imaging Cholesterol 24-Hydroxylase with Positron Emission Tomography” (ACS Pharmacology & Translational Science, 2025).

Assays:
CYP46A1 [1] = target: T1, CYP46A1 (Homo sapiens, UniProt Q9Y6A2); test: CYP46A1 inhibition potency; assay type: biochemical
[2] = logD by shake flask method; assay type: physicochemical; conditions: n-octanol/PBS
Experimental: The lipophilicity was measured according to a previous report.[21] In brief, [^18F]5, n-octanol (3 mL), and PBS (3 mL) were added in a centrifugal tube, followed by vortexing for 3 min and centrifugation (∼14,000 rpm) for 5 min. Then, PBS (around 500 μL) and n-octanol (around 50 μL) were weighed and measured by a gamma counter.

67 major CNS targets = test: Off-target binding screen at 10 μM (NIMH PDSP); conditions: 10 μM testing concentration; except sigma-2 receptor
Experimental: Furthermore, off-target binding assays of compound 5 were performed in vitro against 67 major CNS targets (Figure S1 in the Supporting Information).
1 Supporting Scheme, Figures, and Tables
Scheme S1. Synthesis of precursor 6. (i) azetidin-3-ol hydrochloride, triphosgene, NEt 3, dichloromethane, 0 °C to room temperature, 1 h; (ii) 4-nitrobenzenesulfonyl chloride, 4-(dimethylamino)pyridine, NEt3, dichloromethane, room temperature, 12 h, 31% yield over […]
% Inhibition of Target Activity
Figure S1. Off-target pharmacological evaluation of compound 5 against major CNS targets, including common GPCRs, enzymes, ion channels, and transporters: initial screening at a concentration of 10 μM (supported by the NIMH PDSP). All data are mean

CYP46A1 [3] = target: T2, CYP46A1 (Rattus norvegicus, UniProt A0ACM8QFK4); test: In vitro autoradiography with [^18F]5 on rat brain tissue sections; assay type: binding; conditions: displacement of [^18F]5 with unlabeled 5 at varying concentrations
T2 construct: from tissue; host or cells: rat brain (Sprague-Dawley rats)
Experimental: To assess the binding specificity of [^18F]5 for CYP46A1, in vitro autoradiography was performed by using rat brain tissue sections. […] The accumulation patterns are in agreement with the brain distribution of CYP46A1 in rodents.[18] […] Furthermore, [^18F]5 was utilized to assess the potency toward CYP46A1 through an inhibition assay based on an in vitro autoradiography study (Figure 4B). The assay was performed by the incubation of [^18F]5 on rat brain tissue sections in the presence of unlabeled 5 at varying concentrations.
The autoradiography study was conducted as previously reported.[22],[23] In brief, sagittal rat brain sections (20 μm) were incubated with Tris–HCl buffer (50 mM) at room temperature for 20 min and then incubated with [^18F]5 (1 μCi/mL). In the blocking study, the brain sections were incubated with [^18F]5 in the presence of Soticlestat, CHL2205, or 5 (10 μM). Then, the brain sections were washed with ice-cold Tris–HCl buffer (50 mM) for 2 min and cold distilled water for 10 s. Subsequently, the brain sections were dried, positioned on an imaging screen, and scanned by an Amersham Typhoon analyzer system.

CYP46A1 [4] = target: T2, CYP46A1; test: Dynamic PET imaging in Sprague-Dawley rats; assay type: in vivo
Experimental: To investigate the in vivo binding specificity of [^18F]5 toward CYP46A1, dynamic PET imaging was performed in Sprague–Dawley (SD) rats (Figures 5 and S3 in the Supporting Information). […] Future studies will be required to evaluate its suitability in higher species and direct comparisons under identical experimental conditions. […] To investigate the reversibility of the tracer binding, we further performed a displacement study with Soticlestat at 20 min postadministration of [^18F]5 (Figure S4 in the Supporting Information).
The dynamic PET imaging study was performed in SD rats as previously reported.[21] A Genisys G8 PET scanner (Sofie Biosciences, USA) was used for dynamic PET imaging in rats with [^18F]5 (0.04 mCi) for 60 min. In the blocking study, rats were pretreated with Soticlestat (1 mg/kg, intravenous injection via the tail vein) 10 min before administration of [^18F]5. For the chase study, the rats were treated with Soticlestat (1 mg/kg, i.v.) 20 min after administration of [^18F]5.

CYP46A1 [5] = target: T1, CYP46A1; design: method as in PMID 32178974, PMID 34651220, PMID 37770111, PMID 36197966; conditions: in vivo; cited from earlier work
[6] = In vitro stability in saline; assay type: physicochemical; conditions: saline 18.5 MBq/mL, containing 5% ethanol, up to 60 min
Experimental: The ^18F-labeling nosylate precursor 6 was prepared via a procedure similar to that of compound 5 in 31% yield over two steps (Scheme S1). […] [^18F]5 was generated in a 13% decay-corrected radiochemical yield with a high molar activity of 93 GBq/μmol (2.5 Ci/ μmol).

Stability in mouse serum = assay type: in vitro ADME; conditions: 37 °C, up to 60 min
Experimental: (§1) Mouse serum (Sigma-Aldrich, cat. M5905, 0.4 mL), rat serum (Abcam, cat. ab7488, 0.4 mL), NHP serum (Abcam, cat. ab155109, 0.4 mL), and human serum (Sigma-Aldrich, cat. H4522, 0.4 mL) were incubated at 37 °C for 5 min. Then, formulated [^18F]5 was added and incubated at 37 °C (Benfluorex was used in the positive control test). At 5, 30, and 60 min after incubation with [^18F]5, 100 μL of the samples was drawn in centrifugal tubes and added to ice-cold MeCN (100 μL). The mixtures were centrifuged at 10,000g for 5 min, and the supernatants were analyzed by radio-HPLC.

Stability in rat serum = assay type: in vitro ADME; conditions: 37 °C, up to 60 min
Experimental: as §1

Stability in NHP serum = assay type: in vitro ADME; conditions: 37 °C, up to 60 min
Experimental: as §1

Stability in human serum = assay type: in vitro ADME; conditions: 37 °C, up to 60 min
Experimental: as §1

[7] = Whole-body biodistribution in CD-1 mice; assay type: in vivo, mouse
Experimental: The biodistribution study was conducted in CD-1 mice as previously reported.[24] CD-1 mice were administrated with [^18F]5 (10 μCi) and divided into four groups and then euthanized at 5, 15, 30, and 60 min after administration of [^18F]5. Major organs were collected, weighed, and measured by a gamma counter.

[8] = Radiometabolite analysis in SD rats; assay type: in vivo, rat
Experimental: Radiometabolite analysis of [^18F]5 was conducted as previously reported.[25] SD rats were administrated with [^18F]5 and then euthanized at 20 and 60 min after administration of [^18F]5. The brains were collected, homogenized, and centrifuged with cold acetonitrile and PBS buffer. Then, the supernatants were injected into a radio-HPLC with unlabeled 5 as an internal standard. Both [^18F]5 and its ^18F-metabolites were collected by HPLC and then measured by a gamma counter. The same procedure was performed for the plasma.

T2 sequence (A0ACM8QFK4 29-500): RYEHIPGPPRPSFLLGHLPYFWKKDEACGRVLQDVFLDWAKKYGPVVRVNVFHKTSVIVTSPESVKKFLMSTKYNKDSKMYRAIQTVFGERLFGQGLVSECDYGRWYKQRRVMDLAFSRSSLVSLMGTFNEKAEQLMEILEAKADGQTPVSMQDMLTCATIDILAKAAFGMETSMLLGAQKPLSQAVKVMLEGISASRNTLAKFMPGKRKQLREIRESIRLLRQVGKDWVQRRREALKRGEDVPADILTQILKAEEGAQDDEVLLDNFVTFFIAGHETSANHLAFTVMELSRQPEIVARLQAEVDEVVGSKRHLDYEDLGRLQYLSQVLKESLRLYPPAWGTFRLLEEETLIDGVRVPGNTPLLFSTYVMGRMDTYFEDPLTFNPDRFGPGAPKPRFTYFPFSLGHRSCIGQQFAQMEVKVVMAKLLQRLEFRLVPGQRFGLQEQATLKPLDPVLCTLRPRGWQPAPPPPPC
T1 sequence (Q9Y6A2 whole entry, species assumed): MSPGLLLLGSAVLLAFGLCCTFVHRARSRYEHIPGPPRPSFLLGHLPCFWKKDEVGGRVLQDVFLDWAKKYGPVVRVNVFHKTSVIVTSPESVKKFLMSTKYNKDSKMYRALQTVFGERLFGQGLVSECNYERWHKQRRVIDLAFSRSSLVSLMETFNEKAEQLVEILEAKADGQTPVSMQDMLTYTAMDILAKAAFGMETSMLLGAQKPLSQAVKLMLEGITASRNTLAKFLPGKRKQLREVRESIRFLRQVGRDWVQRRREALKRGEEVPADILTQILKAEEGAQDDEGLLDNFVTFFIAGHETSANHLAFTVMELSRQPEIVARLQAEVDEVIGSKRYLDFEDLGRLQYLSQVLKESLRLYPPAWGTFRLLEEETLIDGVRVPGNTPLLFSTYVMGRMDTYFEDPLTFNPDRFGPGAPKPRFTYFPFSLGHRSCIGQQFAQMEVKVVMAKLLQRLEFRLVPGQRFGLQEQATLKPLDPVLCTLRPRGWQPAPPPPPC

Question: What does the source list for `O=C(N1CC(F)C1)N1CCc2c(-c3cnco3)cc(C(F)(F)F)cc21` [Compound 5, (3-fluoroazetidin-1-yl)(4-(oxazol-5-yl)-6-(trifluoromethyl)indolin-1-yl)methanone]?
Answer: IC50 (CYP46A1 [1]): 0.11 nM; logD [2]: 3.16; off-target binding (>50% inhibition) (67 major CNS targets): no significant off-target binding; Kd (CYP46A1 [3]): 0.37 nM

Question: With `O=C(c1cccnc1-c1ccncc1)N1CCC(O)(Cc2ccccc2)CC1` [Soticlestat, reference compound] as the compound, how does the “brain signal in displacement (chase) study” value (CYP46A1 [4]; 1 mg/kg i.v. at 20 min postadministration of [^18F]5) read?
Answer: markedly reduced

Question: Which results are given for `O=[11C](NCc1ccccc1)N1CCN(c2cncnc2-c2ccccc2)CC1` [[^11C]A]?
Answer: binding specificity toward CYP46A1 (CYP46A1 [5]): marginal binding specificity; brain uptake (CYP46A1 [5]): low brain uptake

Question: Which results are given for `O=C(C1CCN(c2cnccc2-n2cc(Cl)cn2)CC1)N1CC([18F])C1` [[^18F]3g]?
Answer: binding specificity toward CYP46A1 (CYP46A1 [5]): good binding specificity; brain uptake (CYP46A1 [5]): high brain uptake

Question: With `O=C(N1CC([18F])C1)N1CCc2c(-c3cnco3)cc(C(F)(F)F)cc21` [[^18F]5] as the compound, how does the IC50 (CYP46A1 [1]) read?
Answer: 0.11 nM

Question: What about the “in vitro stability (radiolysis) in saline” value [6] of the same compound?
Answer: no radiolysis detected

Question: What about the “stability in mouse serum” value (Stability in mouse serum) of the same compound?
Answer: minimal radiometabolite formation

Question: And the “stability in rat serum” value (Stability in rat serum)?
Answer: minimal radiometabolite formation

Question: And the “stability in NHP serum” value (Stability in NHP serum)?
Answer: minimal radiometabolite formation

Question: And the “stability in human serum” value (Stability in human serum)?
Answer: minimal radiometabolite formation

Question: What about the SUVmax in striatum (CYP46A1 [4]; SD rats, baseline PET) of the same compound?
Answer: 4.1

Question: What about the SUVmax in thalamus (CYP46A1 [4]; SD rats, baseline PET) of the same compound?
Answer: 4.2

Question: And the “brain uptake SUV” value (CYP46A1 [4]; rodents)?
Answer: > 4

Question: And the “bone uptake (radiodefluorination)” value ([7]; 5-60 min)?
Answer: No obvious increase in bone uptake

Question: What about the liver uptake ([7]; 60 min) of the same compound?
Answer: 6.5 % ID/g

Question: What about the “initial uptake in brain, small intestine, kidney and liver” value ([7]; initially) of the same compound?
Answer: ~10 % ID/g

Question: And the “unchanged [^18F]5 in brain” value ([8]; 20 min postadministration)?
Answer: 93%

Question: And the “unchanged [^18F]5 in plasma” value ([8]; 20 min postadministration)?
Answer: 29%

Question: What about the “unchanged [^18F]5 in brain” value ([8]; 60 min postadministration) of the same compound?
Answer: 92%

Question: What about the “unchanged [^18F]5 in plasma” value ([8]; 60 min postadministration) of the same compound?
Answer: 23%

Question: What does the source list for `CN(C(=O)C1CCN(c2cncnc2-c2ccc([18F])cc2)CC1)C1CC1` [[^18F]CHL2205]?
Answer: binding specificity toward CYP46A1 (CYP46A1 [5]): good binding specificity; brain uptake (CYP46A1 [5]): high brain uptake

Question: For `O=C(C1CCN(c2cncnc2-c2ccc(F)cc2)CC1)N1CC([18F])C1` [[^18F]T-008], which “binding specificity toward CYP46A1” value (CYP46A1 [5]) is on record?
Answer: good binding specificity

Question: And the brain uptake (CYP46A1 [5])?
Answer: high brain uptake
